Experimental findings from US20180186815A1, “PHARMACEUTICAL COMPOSITIONS, METHODS FOR THEIR PREPARATION AND THEIR USE IN THE TREATMENT OF CANCER” (Urifer Ltd., priority 2016, published 2018) are described below.

Assay type in all cases: cell-based
Data set [1] has as its system colon cancer cell line HCT 116. The data set can be described thus: Growth profile / viability of HCT116 colon cancer cells, XTT test. The following applies: Homo sapiens, HCT-116, 96 h, Control DMSO = 100%, read-out: percentage of viable cells, HCT116. The procedure: (§1) The effect of the compounds Z522-XXX on the growth profile of cancer cells which express Fer was tested. The cells that were tested were: the colon cancer cell lines HT29 and HCT 116, RKO. The effect of each of the compounds on FS cells, a non malingnant fibroblastic cell line, was also studied.
(§2) Generally, cells were seeded in 96 wells microplates and were left to grow untreated overnight. Each of the compounds was dissolved in DMSO and was then added to each well in a final concentration of 5 μM. The concentration of DMSO in each well was 0.4% v/v. Untreated cells and cells subjected to 0.4% DMSO alone, served as controls. The percentage of viable cells in each well was determined 96 hours after compounds addition, using the XTT test (Berridge, M. V. et al, 2005).

The subject of data set [2] is colon cancer cell line HT29. The data set can be described thus: Growth profile / viability of HT29 colon cancer cells, XTT test. As to conditions: Homo sapiens, HT-29, 96 h, Control DMSO = 100%, read-out: percentage of viable cells, HT29. On the procedure:
as §1, §2

Data set [3] has as its system colon cancer cell line RKO. In words: Growth profile / viability of RKO colon cancer cells, XTT test. The following applies: 96 h, Control DMSO = 100%, read-out: percentage of viable cells, RKO. On the procedure: as §1, §2
Data set [4] is described as follows: Viability of FS non malignant fibroblastic cells, XTT test. As to conditions: FS cells (non-malignant fibroblastic cell line), Control DMSO = 100%, read-out: percentage of viable cells, FS. The procedure:
as §1, §2

Where two headings read alike, the source gives them in different places.

In the case of `CN1CCN(C(=O)C2CCN(c3nn4cc(-c5ccc(N6CCN(C)CC6)cc5)nc4s3)CC2)CC1` [Compound Z522-0160, 2-{4-[(4-methylpiperazin-1-yl)carbonyl]-piperidin-1-yl}-6-[4-(4-methyl-piperazin-1-yl)-phenyl]imidazo[2,1-b][1,3,4]-thiadiazole], the viability at 5 µM in data set [1] (first HCT116 column) worked out at 105%; in data set [1] (second HCT116 column), 108%; in data set [2] (first HT29 column), 117%; in data set [2] (second HT29 column) it was 91%; in data set [3] (first RKO column), 92%; in data set [3] (second RKO column), 109%. Besides, the viability at 96 h, 5 µM is 101% in data set [4] (first FS column) and 104% in data set [4] (second FS column).
With `CN1CCN(C(=O)C2CCN(c3nn4cc(-c5ccc(N6CCSCC6)cc5)nc4s3)CC2)CC1` [Compound Z522-0164, 2-{4-[(4-methylpiperazin-1-yl)carbonyl]-piperidin-1-yl}-6-(4-thiomorpholin-4-ylphenyl)-imidazo[2,1-b]-[1,3,4]thiadiazole], the viability at 5 µM in data set [1] (first HCT116 column) stood at 80%; in data set [1] (second HCT116 column), 97%; in data set [2] (first HT29 column) it was 50%; in data set [2] (second HT29 column), 42%; in data set [3] (first RKO column), 60%; in data set [3] (second RKO column) it was 63%. For the same compound, the viability at 96 h, 5 µM in data set [4] (first FS column) was 104%; in data set [4] (second FS column) it was 95%.
With `CC1CCCN(c2ccc(-c3cn4nc(N5CCC(C(=O)N6CCN(C)CC6)CC5)sc4n3)cc2)C1` (stereo not shown) [Compound Z522-0166, 2-{4-[(4-methylpiperazin-1-yl)carbonyl]-piperidin-1-yl}-6-[4-(3-methyl-piperidin-1-yl)-phenyl]imidazo[2,1-b][1,3,4]-thiadiazole], the viability at 5 µM in data set [1] (first HCT116 column) turned out to be 30%; in data set [1] (second HCT116 column), 23%; in data set [2] (first HT29 column), 4%; in data set [2] (second HT29 column), 4%; in data set [3] (first RKO column), 6%; in data set [3] (second RKO column), 6%. Further, the values for the viability at 96 h, 5 µM in data set [4] (first FS column) and in data set [4] (second FS column) were 101% and 92%, respectively.
In the case of `CN1CCN(C(=O)C2CCN(c3nn4cc(-c5ccc(-n6cccn6)cc5)nc4s3)CC2)CC1` [Compound Z522-0167, 2-{4-[(4-methyl-piperazin-1-yl)-carbonyl]piperidin-1-yl}-6-[4-(1H-pyrazol-1-yl)-phenyl]imidazo[2,1-b][1,3,4]-thiadiazole], the viability at 5 µM was found to be 94% in data set [1] (first HCT116 column); 83% in data set [1] (second HCT116 column); 87% in data set [2] (first HT29 column); 86% in data set [2] (second HT29 column); 36% in data set [3] (first RKO column); 47% in data set [3] (second RKO column). The viability at 96 h, 5 µM stood at 96% in data set [4] (first FS column) and 92% in data set [4] (second FS column).
On to `CC1CCN(c2ccc(-c3cn4nc(N5CCC(C(=O)N6CCN(C)CC6)CC5)sc4n3)cc2)CC1` [Compound Z522-0170, 2-{4-[(4-methyl-piperazin-1-yl)carbonyl]piperidin-1-yl}-6-[4-(4-methylpiperidin-1-yl)phenyl]-imidazo[2,1-b]-[1,3,4]thiadiazole], for which the viability at 5 µM in data set [1] (first HCT116 column) was determined as 2%; in data set [1] (second HCT116 column), 3%; in data set [2] (first HT29 column) it was 5%; in data set [2] (second HT29 column) it was 2%; in data set [3] (first RKO column), 3%; in data set [3] (second RKO column), 4%. The viability at 96 h, 5 µM in data set [4] (first FS column) amounted to 90%; in data set [4] (second FS column), 68%.
`CC(C)N1CCN(c2ccc(-c3cn4nc(N5CCC(C(=O)N6CCN(C)CC6)CC5)sc4n3)cc2)CC1` [Compound Z522-0174, 6-[4-(4-isopropyl-piperazin-1-yl)-phenyl]-2-{4-[(4-methylpiperazin-1-yl)carbonyl]-piperidin-1-yl}-imidazo[2,1-b]-[1,3,4]thiadiazole]: the viability at 5 µM in data set [1] (first HCT116 column) amounted to 105%; in data set [1] (second HCT116 column) it was 124%; in data set [2] (first HT29 column) it was 77%; in data set [2] (second HT29 column) it was 78%; in data set [3] (first RKO column) it was 93%; in data set [3] (second RKO column), 97%. Moreover, the viability at 96 h, 5 µM was determined as 117% in data set [4] (first FS column) and 113% in data set [4] (second FS column).
`CN1CCN(C(=O)C2CCN(c3nn4cc(-c5ccc(N6CCOCC6)cc5)nc4s3)CC2)CC1` [Compound Z522-0176, 2-{4-[(4-methyl-piperazin-1-yl)-carbonyl]piperidin-1-yl}-6-(4-morpholin-4-yl-phenyl)imidazo[2,1-b][1,3,4]-thiadiazole]: the viability at 5 µM was determined as 109% in data set [1] (first HCT116 column); 116% in data set [1] (second HCT116 column); 112% in data set [2] (first HT29 column); 112% in data set [2] (second HT29 column); 92% in data set [3] (first RKO column); 89% in data set [3] (second RKO column). The viability at 96 h, 5 µM came out at 103% in data set [4] (first FS column) and 100% in data set [4] (second FS column).
Turning to `CN1CCN(C(=O)C2CCN(c3nn4cc(-c5ccc(N(C)CCO)cc5)nc4s3)CC2)CC1` [Compound Z522-0177, 2-{methyl[4-(2-{4-[(4-methyl-piperazin-1-yl)-carbonyl]piperidin-1-yl}imidazo-[2,1-b][1,3,4]-thiadiazol-6-yl)-phenyl]amino} ethanol], the viability at 5 µM in data set [1] (first HCT116 column) was 107%; in data set [1] (second HCT116 column), 104%; in data set [2] (first HT29 column), 116%; in data set [2] (second HT29 column), 121%; in data set [3] (first RKO column) it was 97%; in data set [3] (second RKO column), 96%. The viability at 96 h, 5 µM in data set [4] (first FS column) was determined as 120%; in data set [4] (second FS column), 116%.
`Cc1c(-c2ccc(N(C)C)cc2)nc2sc(N3CCC(C(=O)N4CCN(C)CC4)CC3)nn12` [Compound Z522-0179, N,N-dimethyl-4-(5-methyl-2-{4-[(4-methyl-piperazin-1-yl)carbonyl]piperidin-1-yl}imidazo-[2,1-b][1,3,4]-thiadiazol-6-yl)-aniline]: the viability at 5 µM was 101% in data set [1] (first HCT116 column); 108% in data set [1] (second HCT116 column); 103% in data set [2] (first HT29 column); 100% in data set [2] (second HT29 column); 109% in data set [3] (first RKO column); 103% in data set [3] (second RKO column). Besides, the viability at 96 h, 5 µM in data set [4] (first FS column) came to 91%; in data set [4] (second FS column), 117%.
As to `Cc1c(-c2ccc(N3CCN(C)CC3)cc2)nc2sc(N3CCC(C(=O)N4CCN(C)CC4)CC3)nn12` [Compound Z522-0180, 5-methyl-2-{4-[(4-methyl-piperazin-1-yl)carbonyl]piperidin-1-yl}-6-[4-(4-methylpiperazin-1-yl)phenyl]-imidazo[2,1-b]-[1,3,4]thiadiazole], the viability at 5 µM in data set [1] (first HCT116 column) was 94%; in data set [1] (second HCT116 column), 105%; in data set [2] (first HT29 column) it was 89%; in data set [2] (second HT29 column), 90%; in data set [3] (first RKO column), 95%; in data set [3] (second RKO column) it was 103%. Also, the viability at 96 h, 5 µM in data set [4] (first FS column) and in data set [4] (second FS column) was 101% each time.
In the case of `Cc1c(-c2ccc(N3CCSCC3)cc2)nc2sc(N3CCC(C(=O)N4CCN(C)CC4)CC3)nn12` [Compound Z522-0184, 5-methyl-2-{4-[(4-methyl-piperazin-1-yl)carbonyl]piperidin-1-yl}-6-(4-thiomorpholin-4-ylphenyl)imidazo [2,1-b][1,3,4]-thiadiazole], the viability at 5 µM in data set [1] (first HCT116 column) turned out to be 77%; in data set [1] (second HCT116 column), 87%; in data set [2] (first HT29 column), 50%; in data set [2] (second HT29 column), 44%; in data set [3] (first RKO column), 41%; in data set [3] (second RKO column), 53%. Further, the figures for the viability at 96 h, 5 µM in data set [4] (first FS column) and in data set [4] (second FS column) were 71% and 86%, respectively.
`Cc1c(-c2ccc(N3CCCCCC3)cc2)nc2sc(N3CCC(C(=O)N4CCN(C)CC4)CC3)nn12` [Compound Z522-0185, 6-(4-azepan-1-yl-phenyl)-5-methyl-2-{4-[(4-methyl-piperazin-1-yl)carbonyl]piperidin-1-yl}imidazo-[2,1-b][1,3,4]-thiadiazole]: the viability at 5 µM was 40% in data set [1] (first HCT116 column); 42% in data set [1] (second HCT116 column); 19% in data set [2] (first HT29 column); 11% in data set [2] (second HT29 column); 14% in data set [3] (first RKO column); 15% in data set [3] (second RKO column). In addition, the figures for the viability at 96 h, 5 µM in data set [4] (first FS column) and in data set [4] (second FS column) were 92% and 94%, respectively.
Take `CCN1CCN(CC2CCN(C(=O)C3CCN(c4nn5cc(-c6ccc(C(C)C)cc6)nc5s4)CC3)CC2)CC1` [Compound Z522-0244, 2-[4-({4-[(4-ethylpiperazin-1-yl)methyl]piperidin-1-yl}carbonyl)piperidin-1-yl]-6-(4-isopropylphenyl) imidazo[2,1-b][1,3,4]thiadiazole]: the viability at 5 µM is 0% in data set [1] (second HCT116 column), 1% in data set [2] (first HT29 column), 0% in data set [2] (second HT29 column) and 0% in data set [3] (second RKO column).
